Data taken from publication PMC7906020, “Trp-Containing Antibacterial Peptides Impair Quorum Sensing and Biofilm Development in Multidrug-Resistant Pseudomonas aeruginosa and Exhibit Synergistic Effects With Antibiotics” (Frontiers in Microbiology, 2021).

Columns and labels:
MRPA0108 strain = details: previous study, ref Han et al., 2020; cited from earlier work
Text: Supplement Table_1.docx, table 1: Table S1 Biological characteristics and antibacterial activities of the Trp-containing antimicrobial peptides (32) | column: MIC(μM)

[1] = test system: LasB elastase of MRPA0108; assay: LasB elastase activity, elastin-Congo red method; format: cell-based, Pseudomonas aeruginosa; details: peptide at 1/4 × MIC, 24 h, 37°C; ECR substrate, OD495/OD600; vs control; triplicate
Procedure: (§1) The culture supernatant was obtained after centrifugation at 12,000×g for 10 min. (1) LasB elastase activity was measured using elastin-Congo red (ECR) as the substrate, as described by [Pattnaik et al. (2018)]. Briefly, 100 μl of the culture supernatant was added to 900 μl of ECR buffer (100 mM Tris-HCl, 1 mM CaCl2, pH 7.5) containing 10 mg of ECR and then incubated with shaking at 37°C for 18 h. Then, 100 μl of 0.12 M EDTA was added to stop the reaction. The insoluble ECR was removed by centrifugation, and the supernatant absorbance was measured at 495 nm. The optical density (OD) 495 nm/OD 600 nm represents the elastase activity. (2) LasA protease activity was measured as follows ([Pattnaik et al., 2018]): first, the culture supernatant was filtered to remove the bacterial cells, and then 150 μl of sterile-filtered supernatant was added to 2% azocasein (prepared in 50 mM Tris-HCl) and incubated for 4 h at 37°C. Trichloroacetic acid (TCA, 10%) was added to precipitate the undigested substrate. After centrifugation at 10,000 rpm for 10 min, 1 M NaOH was added to the supernatant, and the relative protease activity was measured at OD 440 nm. (3) The pyocyanin assay was based on the absorbance of excreted pyocyanin at 520 nm in an acidic solution ([Kong et al., 2005]). Three milliliters of culture supernatant were mixed with 2 ml of chloroform for 20 min, and then the pyocyanin from the chloroform phase was reextracted using 0.2 M HCl for 15 min to obtain a pink-colored pyocyanin solution. The OD 520 nm was measured to evaluate the change in pyocyanin content. (4) Rhamnolipid detection was carried out as previously described ([Wittgens et al., 2011]). Briefly, 500 μl of culture supernatant was mixed with 500 μl of ethyl acetate and vortexed vigorously for 15 s to extract rhamnolipid. After centrifugation at 10,000×g for 5 min at 4°C, the organic phase containing rhamnolipids was obtained and evaporated at room temperature overnight. […] The absorbance was measured at 420 nm. (5) The level of C4-HSL was quantified by GC-MS as previously described ([Guo et al., 2012]).

MRPA0108 biofilms = assay: Confocal laser scanning microscopy of biofilms (LIVE/DEAD staining); format: cell-based, Pseudomonas aeruginosa; details: 24 h; for percentage of dead/live cells in biofilm: control 8.7%
Procedure: Biofilms of MRPA0108 were visualized by confocal microscopy. Mid-log growth-phase bacteria were diluted to 1 × 10^7 CFU/ml. […] LB liquid medium and erythromycin were used as negative and positive controls, respectively. After incubation, the supernatant was removed, and the slides were washed and stained in a dark environment for 30 min using a LIVE/DEAD BacLight^TM Bacterial Viability Kit (Invitrogen, Life Technologies, Shanghai, China). The slides were washed three times and imaged with a confocal laser scanning microscope (LSM 710, Carl Zeiss, Germany) with excitation/emission wavelengths of 480/500 and 490/635 nm for SYTO9 and propidium iodide (PI), respectively. SYTO9 was used to indicate live bacteria, and PI was used to mark dead bacteria.

MRPA0108 = assay: Checkerboard assay (FICI) of peptides with antibiotics; format: cell-based, Pseudomonas aeruginosa; details: MRPA0108, 24 h 37°C, median of at least three experiments, synergy ≤ 0.5, additive 0.5-1, indifference 1-2
Procedure: The synergistic effect of peptides and antibiotics was evaluated using the checkerboard method, in which the fractional inhibitory concentration index (FICI) was used to analyze the type of interaction between compounds ([Berditsch et al., 2015]). A 100 μl inoculum of 10^5 CFU/ml planktonic bacteria was added to the respective wells of 96-well microtiter plates, and then serial dilutions of peptide and antibiotic at 100 μl volumes were added to each well and incubated at 37°C for 24 h. The OD 600 nm value was measured with a microplate plate reader (Varioskan Flash Microplate Reader, Thermo Fisher Scientific Co., Beijing) as an indicator of growth inhibition. The resulting checkerboard contained each combination of peptide and antibiotic in 9 doubly increasing concentrations, with wells containing the highest concentration of each antibiotic at opposite corners. The concentrations tested for every combination of peptide-antibiotic were their respective MICs. MH medium and the peptide/antibiotic combination served as negative and positive controls, respectively. The FICI is calculated as FICa plus FICb, where FICa is the MIC of the peptide in the presence of antibiotics/the MIC of the peptide alone, and FICb is the MIC of the antibiotic in the presence of peptide/the MIC of the antibiotic alone. Drug interactions were defined as follows: synergy, FICI ≤ 0.5; additive effect, 0.5 < FICI ≤ 1; and indifference, 1 < FICI ≤ 2 ([Hollander et al., 1998]; [Yoon et al., 2004]). The results were recorded in at least three independent experiments, and the median FICI values were used in the analysis.

[2] = test system: pyocyanin production in MRPA0108; assay: Pyocyanin production assay; format: cell-based, Pseudomonas aeruginosa; details: peptide at 1/4 × MIC, 24 h; OD 520 nm; vs untreated control; triplicate
Procedure: as §1, with “Trichloroacetic acid (TCA, 10%) was added to precipitate the undigested substrate.” left out, “Three milliliters of culture supernatant were mixed with 2 ml of chloroform for 20 min, and then the pyocyanin from the chloroform phase was reextracted using 0.2 M HCl for 15 min to obtain a pink-colored pyocyanin solution.” left out, “content.” for “content. (4) Rhamnolipid detection was carried out as previously described ([Wittgens et al., 2011]). Briefly, 500 μl of culture supernatant was mixed with 500 μl of ethyl acetate and vortexed vigorously for 15 s to extract rhamnolipid. After centrifugation at 10,000×g for 5 min at 4°C, the organic phase containing rhamnolipids was obtained and evaporated at room temperature overnight.”

[3] = test system: rhamnolipid production in MRPA0108; assay: Rhamnolipid production, orcinol method; format: cell-based, Pseudomonas aeruginosa; details: peptide at 1/4 × MIC, 24 h, absorbance 420 nm, vs control, triplicate
Procedure: The culture supernatant was obtained after centrifugation at 12,000×g for 10 min. (1) LasB elastase activity was measured using elastin-Congo red (ECR) as the substrate, as described by [Pattnaik et al. (2018)]. Briefly, 100 μl of the culture supernatant was added to 900 μl of ECR buffer (100 mM Tris-HCl, 1 mM CaCl2, pH 7.5) containing 10 mg of ECR and then incubated with shaking at 37°C for 18 h. Then, 100 μl of 0.12 M EDTA was added to stop the reaction. The insoluble ECR was removed by centrifugation, and the supernatant absorbance was measured at 495 nm. The optical density (OD) 495 nm/OD 600 nm represents the elastase activity. (2) LasA protease activity was measured as follows ([Pattnaik et al., 2018]): first, the culture supernatant was filtered to remove the bacterial cells, and then 150 μl of sterile-filtered supernatant was added to 2% azocasein (prepared in 50 mM Tris-HCl) and incubated for 4 h at 37°C. Trichloroacetic acid (TCA, 10%) was added to precipitate the undigested substrate. After centrifugation at 10,000 rpm for 10 min, 1 M NaOH was added to the supernatant, and the relative protease activity was measured at OD 440 nm. (3) The pyocyanin assay was based on the absorbance of excreted pyocyanin at 520 nm in an acidic solution ([Kong et al., 2005]). Three milliliters of culture supernatant were mixed with 2 ml of chloroform for 20 min, and then the pyocyanin from the chloroform phase was reextracted using 0.2 M HCl for 15 min to obtain a pink-colored pyocyanin solution. The OD 520 nm was measured to evaluate the change in pyocyanin content. (4) Rhamnolipid detection was carried out as previously described ([Wittgens et al., 2011]). Briefly, 500 μl of culture supernatant was mixed with 500 μl of ethyl acetate and vortexed vigorously for 15 s to extract rhamnolipid. After centrifugation at 10,000×g for 5 min at 4°C, the organic phase containing rhamnolipids was obtained and evaporated at room temperature overnight. The rhamnolipid extract dissolved in ultrapure water was mixed with orcinol reagent (0.19% orcinol in 53% H2SO4) and incubated at 80°C for 30 min. The absorbance was measured at 420 nm. (5) The level of C4-HSL was quantified by GC-MS as previously described ([Guo et al., 2012]).

[4] = cited from earlier work
Text: Supplement Table_1.docx, table 1: Table S1 Biological characteristics and antibacterial activities of the Trp-containing antimicrobial peptides (32) | column: Hemolysis (μM)

[5] = test system: MRPA0108 swarming motility; assay: Swarming motility assay; format: cell-based, Pseudomonas aeruginosa; details: erythromycin positive control, concentration not given; 24 h, 37°C; vs control
Procedure: The swarming motility of MRPA0108 was assessed as described by [O’May and Tufenkji (2011)], with slight modifications. Briefly, swarming agar medium (1% tryptone, 0.5% NaCl, and 0.5% agar) was prepared in the presence or absence of peptide at a final concentration of 1/4 × MIC. MRPA0108 cells from an overnight culture grown on LB agar plates were placed directly on the agar surface (center) with a sterile toothpick so that the motility within the semisolid agar could be evaluated. After 24 h of incubation at 37°C, the diameters of swarming motility were observed and measured. LB liquid medium and erythromycin were used as negative control and positive controls, respectively. All experiments were repeated three times.

Molecule | MIC (MRPA0108 strain) | decrease of LasB elastase activity [1] | average biofilm thickness (MRPA0108 biofilms; after treatment with low concentrations of peptide (1 × MIC or 2 × MIC), 37°C, control biofilm 6 μm) | percentage of dead/live cells in biofilm (MRPA0108 biofilms; peptide at 1 × MIC, SYTO9/PI) | percentage of dead/live cells in biofilm (MRPA0108 biofilms; peptide at 2 × MIC, SYTO9/PI) | FICI in combination with ceftazidime (MRPA0108) | FICI in combination with levofloxacin (MRPA0108) | FICI in combination with piperacillin (MRPA0108) | reduction of pyocyanin production [2] | inhibition of rhamnolipid production [3] | Hemolysis [4] | percentage of dead/live cells in biofilm (MRPA0108 biofilms; erythromycin positive control, concentration not given) | reduction in swarming motility [5]
IKKIWSKIKKLLK-NH2 [L5W] | 12.5 µM | 24.1% | 1.5–2.5 μm | 21.4% | 32.5% | 0.23 | 0.62 | 0.37 | 69.4% | 40.7% | > 500 µM |  | 
CC[C@H]1OC(=O)[C@H](C)[C@@H](O[C@H]2C[C@@](C)(OC)[C@@H](O)[C@H](C)O2)[C@H](C)[C@@H](O[C@@H]2O[C@H](C)C[C@H](N(C)C)[C@H]2O)[C@](C)(O)C[C@@H](C)C(=O)[C@H](C)[C@@H](O)[C@]1(C)O [erythromycin, reference compound] |  |  |  |  |  |  |  |  |  |  |  | 68.9% | 85%
